Results reported in US20190308956A1, “PIPERAZINE DERIVATIVES AS ANTIVIRAL AGENTS WITH INCREASED THERAPEUTIC ACTIVITY” (SERVICIO ANDALUZ DE SALUD, priority 2016, published 2019).

Experiments:
HAdV5-GFP = experiment: Plaque assay, HAdV5-GFP in 293β5 cells; format: cell-based; conditions: read-out: Percentage of plaque formation inhibition, HAdV5-GFP, 10 μM, 293β5 cell line
Experimental: 1.5. Plaque assay. For low MOI infections, active compounds were further evaluated in a plaque assay. 293β5 cells were seeded in 6-well plates at 4×10^5 cells per well in duplicate for each condition. When cells reached 80-90% confluency, they were infected with HAdV5-GFP or HAdV16-GFP (0.06 vp/cell) and rocked for 2 h at 37° C. The inoculum was removed and the cells were washed once with PBS. The cells were then carefully overlaid with 4 ml/well of equal parts of 1.6% […] Difco Agar Noble (Becton, Dickinson & Co, Sparks, MD) and 2× EMEM (BioWhittaker) supplemented with 2x penicillin/streptomycin, 2× L-glutamine and 10% FBS. The mixture also contained compound in concentrations ranging from 5 to 1 μM. Following incubation for 7 days at 37° C., plates were scanned with a Typhoon 9410 imager (GE Healthcare Life Sciences), and plaques were quantified with ImageJ.43
For the plaque assay 293β5 cells were infected with HAdV5-GFP (in the presence of compound at 10 μM) (Table 2). From this generation of compounds, our primary screening identified 4 compounds (12, 13, 22 and 25) that inhibited HAdV5-GFP plaque formation >90% compared to a control with the same volume of DMSO.

[1] = Cytotoxicity assay (alamarBlue cell viability); format: cell-based, Human; conditions: human, A549 cells, 48 h
Experimental: 1.4. Cytotoxicity assay. The cytotoxicity of the compounds was measured using the AlarmBlue cell viability assay (Invitrogen) according to the manufacturer's instructions. Actively dividing A549 cells were incubated with compounds for 48 h. After the incubation the alamarBlue reagent was added to the cells ( 1/10th alamarBlue reagent in culture medium) for an extra 4 h. The 50% cell cytotoxic concentration (CC50) of the molecules was calculated according to Cheng et al.42 The selectivity index (SI) was evaluated as the ratio of CC50 to IC50, where the IC50 is defined as the concentration of compound that inhibits HAdV infection by 50%.

[2] = tested on: Acinetobacter baumannii strains resistant to colistine; experiment: Screening of inhibition of bacterial growth at 50 μM; format: cell-based; conditions: 5×10^5 CFU/ml, 18 h; for Screening, growth inhibition Ab 21R: strain Ab 21R; for Screening, growth inhibition Ab 21R / Screening, growth inhibition Ab 22P: 50 μM; for Screening, growth inhibition Ab 22P: strain Ab 22P; for Screening, growth inhibition Ab 24: strain Ab 24, 50 μM
From the text: (§1) All of the strains used were Acinetobacter baumannii strains resistant to colistine: Resistance (R)≥4 Sensibility (S)≤2—All of these strains have been disclosed in Valencia R, Arroyo L A, Conde M, Aldana J M, Torres M J, Fernandez-Cuenca F, et al. Nosocomial outbreak of infection with pan-drug-resistant Acinetobacter baumannii in a tertiary care university hospital. Infection control and hospital epidemiology. 2009; 30(3):257-63. The specific strains used were the following: 1, 10, 11, 14, 16, 17, 19, 20, 21R, 22P, 24, 99 and 113.
Evaluation of the inhibition of the bacterial growth of the 4 families of piperazines derivatives was performed by using a final concentration of 50 μM of each piperazine derivative in a concentration of 5×10^5 CFU/ml of each strain of A. baumannii in 96-well plates.
These plates were incubated for 18 hours at 37° C.

[3] = tested on: Acinetobacter baumannii strains resistant to colistine; experiment: Minimal inhibitory concentration (MIC), microdilution in MHBII; format: cell-based; conditions: 5×10^5 CFU/ml, 18 h; for CMI (MIC) Ab 21R: strain Ab 21R; for CMI (MIC) Ab 21R / CMI (MIC) Ab 22P: MHBII; for CMI (MIC) Ab 22P: strain Ab 22P; for CMI (MIC) Ab 24: strain Ab 24, MHBII
From the text: as §1
Microdilution in cell medium Mueller Hinton Broth II (MHBII). This technique was carried out solely in those piperazines which presented inhibitory activity in the screening study.
We used decreasing concentrations of each piperazine derivative (from 50 μM -0.05 μM) in a concentration of 5×10^5 CFU/ml of each strain of A. baumannii in 96 well plates. These plates were incubated for 18 hours at a temperature 37° C.

| SMILES | inhibition at 10 µM (HAdV5-GFP) [%] | CC50 at 48 h [1] [µM] | also measured |
| --- | --- | --- | --- |
| CC1CN(C(=O)OC(C)(C)C)CCN1C(=O)Nc1ccc(Cl)cc1 (centres unmarked) [Compound 27, 4-tert-Butoxycarbonyl-1-[(4-chlorophenyl)aminocarbonyl]-2-methylpiperazine] | 62.03 ± 0.26 | 150 ± 1.01 |  |
| CC1CN(C(=O)c2cc3ccccc3o2)CCN1C(=O)Nc1ccc(C(F)(F)F)cc1 (centres unmarked) [Compound 33, 4-(Benzofuran-2-carbonyl)-2-methyl-1-[(4-trifluoromethylphenyl)aminocarbonyl]piperazine] | 91 to 100 | 82.2 ± 24.3 |  |
| COc1ccc(NC(=O)N2CCN(C(=O)c3ccccc3)CC2C)cc1 (centres unmarked) [Compound 24, 4-Benzoyl-1-[(4-methoxyphenyl)aminocarbonyl]-2-methylpiperazine] | 0 |  |  |
| Cc1ccc(NC(=O)N2CCN(C(=O)OC(C)(C)C)CC2c2ccccc2)cc1 (centres unmarked) [Compound 55, 4-tert-Butoxycarbonyl-1-[(4-methylphenyl)aminocarbonyl]-2-phenylpiperazine] | 63.02 ± 0.2 | 165 ± 17.4 |  |
| COc1ccc(NC(=O)N2CCN(C(=O)OC(C)(C)C)CC2C)cc1 (centres unmarked) [Compound 14, 4-tert-Butoxycarbonyl-1-[(4-methoxyphenyl)aminocarbonyl]-2-methylpiperazine] | 49.1 ± 1.39 |  |  |
| CC(C)(C)OC(=O)N1CCN(C(=O)Nc2ccc(F)cc2)C(c2ccccc2)C1 (centres unmarked) [Compound 49, 4-tert-Butoxycarbonyl-1-[(4-fluorophenyl)aminocarbonyl]-2-phenylpiperazine] | 75.84 ± 0.49 | 110 ± 8.09 |  |
| CC1CN(C(=O)OC(C)(C)C)CCN1C(=S)Nc1ccc([N+](=O)[O-])cc1 (centres unmarked) [Vip 499] |  |  | Screening, growth inhibition Ab 14 ([2]; strain Ab 14, 50 μM): <50 µM; Screening, growth inhibition Ab 21R [2]: <50 µM; Screening, growth inhibition Ab 22P [2]: <50 µM; Screening, growth inhibition Ab 24 [2]: <50 µM; CMI (MIC) Ab 14 ([3]; strain Ab 14, MHBII): 25 µM; CMI (MIC) Ab 21R [3]: 50 µM; CMI (MIC) Ab 22P [3]: 25 µM; CMI (MIC) Ab 24 [3]: 25 µM |
| CC1CN(C(=O)c2cc3ccccc3o2)CCN1C(=O)Nc1ccc(C#N)cc1 (centres unmarked) [Compound 34, 4-(Benzofuran-2-carbonyl)-1-[(4-cyanophenyl)aminocarbonyl]-2-methylpiperazine] | 83.2 ± 1.55 | 118 ± 30.2 |  |
| COc1ccc(NC(=O)N2CCN(C(=O)C(C)(C)C)CC2C)cc1 (centres unmarked) [Compound 19, 1-[(4-Methoxyphenyl)aminocarbonyl]-2-methyl-4-pivaloylpiperazine] | 0 |  |  |
| CC1CN(C(=O)OC(C)(C)C)CCN1C(=O)Nc1ccc(C(F)(F)F)cc1 (centres unmarked) [Compound 28, 4-tert-Butoxycarbonyl-2-methyl-1-[(4-trifluoromethylphenyl)aminocarbonyl]piperazine] | 30.6 ± 14.6 | 137 ± 24.3 |  |
| CC(C)(C)OC(=O)N1CCN(C(=O)Nc2ccc(Cl)cc2)C(c2ccccc2)C1 (centres unmarked) [Compound 47, 4-tert-Butoxycarbonyl-1-[(4-chlorophenyl)aminocarbonyl]-2-phenylpiperazine] | 86.3 ± 6.35 | 17.1 ± 4.24 |  |
| CC1CN(C(=O)c2cc3ccccc3o2)CCN1C(=O)Nc1ccccc1Br (centres unmarked) [Compound 38, 4-(Benzofuran-2-carbonyl)-1-[(2-bromophenyl)aminocarbonyl]-2-methylpiperazine] | 55.8 ± 19.5 |  |  |
| COc1ccc(C(=O)N2CCN(C(=O)c3ccccc3)CC2C)cc1 (centres unmarked) [Compound 21, 4-Benzoyl-1-(4-methoxybenzoyl)-2-methylpiperazine] | 0 |  |  |
| CC1CN(C(=O)c2ccccc2)CCN1C(=S)Nc1ccc([N+](=O)[O-])cc1 (centres unmarked) [Compound 22, 4-Benzoyl-2-methyl-1-[(4-nitrophenyl)aminothiocarbonyl]piperazine] | > 90 | 31.4 ± 2.82 |  |
| CC1CN(C(=O)C(C)(C)C)CCN1C(=S)Nc1ccc([N+](=O)[O-])cc1 (centres unmarked) [Compound 17, 2-Methyl-1-[(4-nitrophenyl)aminothiocarbonyl]-4-pivaloylpiperazine] | 64 ± 8.97 |  |  |
| CC1CN(C(=O)c2cc3ccccc3o2)CCN1C(=O)Nc1ccccc1 (centres unmarked) [Compound 41, 4-(Benzofuran-2-carbonyl)-2-methyl-1-(phenylaminocarbonyl)piperazine] | 11.2 ± 26.5 |  |  |
| CC(C)(C)OC(=O)N1CCN(C(=O)Nc2ccc(Cl)c(C(F)(F)F)c2)C(c2ccccc2)C1 (centres unmarked) [Compound 53, 4-tert-Butoxycarbonyl-1-[(4-chloro-3-trifluoromethylphenyl)aminocarbonyl]-2-phenylpiperazine] | 100 | 27.5 |  |
| CC1CN(C(=O)c2cc3ccccc3o2)CCN1C(=O)Nc1ccc([N+](=O)[O-])cc1 (centres unmarked) [Compound 25, 4-(Benzofuran-2-carbonyl)-2-methyl-1-[(4-nitrophenyl)aminocarbonyl]piperazine] | > 90 | 51.1 ± 7.35 |  |
| CC1CN(C(=O)OC(C)(C)C)CCN1C(=O)Nc1ccc([N+](=O)[O-])cc1 (centres unmarked) [Compound 13, 4-tert-Butoxycarbonyl-2-methyl-1-[(4-nitrophenyl)aminocarbonyl]piperazine] | > 90 | 143 ± 3.29 |  |
| C[C@H]1CN(C(=O)OC(C)(C)C)CCN1C(=S)Nc1cc(C(F)(F)F)cc(C(F)(F)F)c1 [Compound S-592] |  |  | Screening, growth inhibition Ab 21R [2]: <50 µM; Screening, growth inhibition Ab 22P [2]: <50 µM; Screening, growth inhibition Ab 24 [2]: <50 µM; CMI (MIC) Ab 21R [3]: 3.12 µM; CMI (MIC) Ab 22P [3]: 12.5 µM; CMI (MIC) Ab 24 [3]: 3.12 µM |
| CC(C)(C)OC(=O)N1CCN(C(=O)Nc2ccc(C(F)(F)F)cc2)C(c2ccccc2)C1 (centres unmarked) [Compound 48, 4-tert-Butoxycarbonyl-2-phenyl-1-[(4-trifluoromethylphenyl)aminocarbonyl]piperazine] | 71.51 ± 0.11 | 42.1 ± 28.6 |  |
| CC(C)(C)OC(=O)N1CCN(C(=O)Nc2ccccc2[N+](=O)[O-])C(c2ccccc2)C1 (centres unmarked) [Compound 51, 4-tert-Butoxycarbonyl-1-[(2-nitrophenyl)aminocarbonyl]-2-phenylpiperazine] | 100 | 82.2 ± 9.06 |  |
| CC(C)(C)OC(=O)N1CCN(C(=O)Nc2ccc(C#N)cc2)C(c2ccccc2)C1 (centres unmarked) [Compound 50, 4-tert-Butoxycarbonyl-1-[(4-cyanophenyl)aminocarbonyl]-2-phenylpiperazine] | 67.2 ± 16.5 | 91.3 ± 61.5 |  |
| COc1ccccc1NC(=O)N1CCN(C(=O)c2cc3ccccc3o2)CC1C (centres unmarked) [Compound 40, 4-(Benzofuran-2-carbonyl)-1-[(2-methoxyphenyl)aminocarbonyl]-2-methylpiperazine] | 16.4 ± 5.81 |  |  |
| C[C@@H]1CN(C(=O)CC2CCCCC2)CCN1C(=S)Nc1cc(C(F)(F)F)cc(C(F)(F)F)c1 [Compound R-615] |  |  | Screening, growth inhibition Ab 24 [2]: <50 µM; CMI (MIC) Ab 24 [3]: 6.25 µM |
| C[C@@H]1CN(C(=O)OC(C)(C)C)CCN1C(=S)Nc1cc(C(F)(F)F)cc(C(F)(F)F)c1 [Compound R-592] |  |  | Screening, growth inhibition Ab 21R [2]: <50 µM; CMI (MIC) Ab 21R [3]: 3.12 µM |
| CC1CN(C(=O)C(C)(C)C)CCN1C(=O)Nc1ccc([N+](=O)[O-])cc1 (centres unmarked) [Compound 18, 2-Methyl-1-[(4-nitrophenyl)aminocarbonyl]-4-pivaloylpiperazine] | 0 |  |  |
| CC1CN(C(=O)c2ccccc2)CCN1C(=O)Nc1ccc([N+](=O)[O-])cc1 (centres unmarked) [Compound 23, 4-Benzoyl-2-methyl-1-[(4-nitrophenyl)aminocarbonyl]piperazine] | 71.7 ± 3.43 |  |  |
